Experimental data from PubChem BioAssay (NCI).
Values joined by “and” are separate entries in the source; they are usually repeats but may differ in a detail not shown here. Equal values may be shown once.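 Values below derive from 48-hour exposures of cells grown in 96-well plates, with endpoints linearly interpolated between the two concentrations bracketing the appropriate inhibition level. GI50 marks 50% less growth. TGI marks complete inhibition of growth.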

What was measured:
Assay in all cases: NCI anticancer screen, dose series, 48 h
SN12C renal = tested on: SN12C renal
HS 578T breast = tested on: HS 578T breast
SK-MEL-5 melanoma = tested on: SK-MEL-5 melanoma
NCI-H460 lung = tested on: NCI-H460 lung
COLO 205 colon = tested on: COLO 205 colon
RPMI-8226 leukemia = tested on: RPMI-8226 leukemia
SF-295 CNS = tested on: SF-295 CNS
MCF7 breast = tested on: MCF7 breast
MALME-3M melanoma = tested on: MALME-3M melanoma
NCI/ADR-RES ovarian = tested on: NCI/ADR-RES ovarian

| SMILES | GI50 (SN12C renal) | TGI (SN12C renal) | GI50 (HS 578T breast) | TGI (HS 578T breast) | GI50 (SK-MEL-5 melanoma) | TGI (SK-MEL-5 melanoma) | GI50 (NCI-H460 lung) | TGI (NCI-H460 lung) | GI50 (COLO 205 colon) | TGI (COLO 205 colon) | GI50 (RPMI-8226 leukemia) | TGI (RPMI-8226 leukemia) | GI50 (SF-295 CNS) | TGI (SF-295 CNS) | GI50 (MCF7 breast) [µM] | TGI (MCF7 breast) | GI50 (MALME-3M melanoma) | TGI (MALME-3M melanoma) | GI50 (NCI/ADR-RES ovarian) | TGI (NCI/ADR-RES ovarian) |
| --- | --- | --- | --- | --- | --- | --- | --- | --- | --- | --- | --- | --- | --- | --- | --- | --- | --- | --- | --- | --- |
| COC1=CC(c2ccc[nH]2)=N/C1=C\c1[nH]c(C)c(C(=O)OCc2ccccc2)c1C | 0.0849 µM | 1.88 µM | 0.0804 µM | 0.662 µM | 0.0476 µM | 0.177 µM | 0.0476 µM | 1.2 µM | 0.165 µM | 1.48 µM | 0.116 µM | 1.8 µM | 0.17 µM | 0.827 µM | 0.0894 | 0.836 µM | 0.495 µM | 2.1 µM | 0.0714 µM | 1.36 µM |
| CC(C)[C@](O)(c1ccc2cc(OC(F)F)c(OC(F)F)cc2c1)c1cn[nH]n1 | 19.2 µM and 15.6 µM | 36.8 µM and 32.2 µM | 22.1 µM and 15.4 µM | 82.4 µM and 51.2 µM | 17.1 µM and 16.9 µM | 30.9 µM and 30.7 µM | 18.9 µM and 17.7 µM | 34.9 µM and 34.3 µM | 17 µM and 21.5 µM | 33.9 µM and 43.2 µM | 24.9 µM and 18.2 µM | 68.4 µM and 53 µM | 15.8 µM and 14 µM | 33.4 µM and 29 µM | – | 22.4 µM and 35.9 µM | 18.4 µM and 21 µM | 42.6 µM and 44.7 µM | 20.1 µM and 21.5 µM | 52.8 µM and 53.5 µM |
| COc1ccc2c(c1)C(=O)c1c-2n(CCCN)c(=O)c2ccccc12 | < 0.016 µM | 0.118 µM | 0.649 µM | 3.09 µM | 0.0586 µM | 0.477 µM | < 0.01 µM | 0.0402 µM | < 0.0318 µM | 0.807 µM | < 0.0114 µM | 0.0316 µM | 0.015 µM | 0.657 µM | < 0.01 | 1.07 µM | 0.031 µM | 0.352 µM | 0.0992 µM | 1.95 µM |
| CC(C)=CCN=C(N)N | – | > 100 µM | – | > 100 µM | – | > 100 µM | – | > 100 µM | – | > 100 µM | – | 99.7 µM | – | > 100 µM | – | > 100 µM | – | > 100 µM | – | > 100 µM |
| C=C(Cn1c(=O)c2ccccc2c2ccccc21)c1ccc(C(=O)Nc2ccccc2N)cc1 | 11.3 µM | > 100 µM | 58.2 µM | > 100 µM | 20.6 µM | > 100 µM | 21.3 µM | > 100 µM | 45.1 µM | > 100 µM | 0.765 µM | 4.36 µM | > 79.7 µM | > 100 µM | 69.8 | > 100 µM | 5.19 µM | > 92.8 µM | 3.78 µM | > 57.8 µM |
| C[n+]1c(/C=C\C=C\N2CCCCC2)sc2ccccc21 | 0.716 µM | 21.2 µM | 1.11 µM | 22.5 µM | 0.276 µM | 1.5 µM | 0.489 µM | 4.37 µM | 0.204 µM | 0.454 µM | 0.0691 µM | 1.09 µM | 0.385 µM | 2.36 µM | 0.346 | 11.8 µM | 0.311 µM | 2.18 µM | 37.6 µM | > 100 µM |
